Structures are written as SMILES.

A short description of data set [1]: Inhibition of human CYP1B1 expressed in HEK293 cells assessed as potentiation of cisplatin-induced cytotoxicity by measuring cisplatin EC50 at 0.018 uM by MTT assay (Rvb = 61 +/- 8 uM). Background: Tetrazolium dyes change colour on reduction, which living cells bring about.
Data set [2] in a line: Inhibition of human CYP1B1 expressed in human A2780 cells assessed as potentiation of cisplatin-induced cytotoxicity by measuring cisplatin EC50 at 0.018 uM by MTT assay (Rvb = 40 +/- 4.9 uM).
Data set [3] in a line: Inhibition of human CYP1B1 expressed in HEK293 cells assessed as potentiation of cisplatin-induced cytotoxicity by measuring cisplatin EC50 at 0.016 uM by MTT assay (Rvb = 61 +/- 8 uM).
A short description of data set [4]: Inhibition of human CYP1B1 expressed in human A2780 cells assessed as potentiation of cisplatin-induced cytotoxicity by measuring cisplatin EC50 at 0.016 uM by MTT assay (Rvb = 40 +/- 4.9 uM).
Data set [5] in a line: Inhibition of human CYP1B1 expressed in HEK293 cells assessed as potentiation of cisplatin-induced cytotoxicity by measuring cisplatin EC50 at 0.02 uM by MTT assay (Rvb = 61 +/- 8 uM).
Data set [6] in a line: Inhibition of human CYP1B1 expressed in human A2780 cells assessed as potentiation of cisplatin-induced cytotoxicity by measuring cisplatin EC50 at 0.02 uM by MTT assay (Rvb = 40 +/- 4.9 uM).

For `COc1ccc2cc(C(=O)/C=C/c3cccnc3)ccc2c1`, the EC50 – broadly, the midpoint of the concentration-response curve – in data set [1] stood at 8.3 µM; in data set [2], 3.3 µM.
For the compound `O=c1cc(-c2ccccc2)oc2c1ccc1ccccc12`, the values for the EC50 in data set [3] and in data set [4] were 40 µM and 35 µM, respectively.
`O=C(/C=C/c1ccc2ccccc2c1)c1cccnc1`: the half-maximal effective concentration (EC50) in data set [5] was determined as 1 µM; in data set [6] it was 0.5 µM.

The record behind these values is BindingDB's records for doi:10.1016/j.ejmech.2017.02.016 (De Montfort University, 2017).
